Assay results: patent US20090142364A1, “Method for finding novel peptide immunostimulatory adjuvants, compositions and methods of use” (priority 2007, published 2009)
“Also recorded” adds a separate entry of the source. Where a SMILES comes first, the peptide text is derived from it.

How the values were obtained:
[1] = rat, in vivo, ip
Description: We studied the Ia-antigen-inducing activity of RN-peptide by stimulation in vitro of murine peritoneal macrophages. Flow cytometry was used to assess Ia-antigen expression. […] The pyrogenicity of the peptide was studied in Wistar rats. […] The dynamics of alteration of rectal temperature were monitored during 2.5 h.
The pyrogenic effect SPF female Wistar rats were injected i.p. with a peptide (1.01 mg/kg; 5.74×10^−7 mole/kg) in PBS or with equal dose of GMDP (0.4 mg/kg; 5.74×10^−7 mole/kg). Rectal temperature was recorded every 5 minutes for 160 minutes using PowerLabe/4sp system with an electronic thermometer (MLT1403 Rectal Probe for Rats, AD Instruments USA). All data were quantified (mean±SEM) and compared by the variance analysis.

E. coli strain TG-1 = experiment: Survival of Balb/c mice infected with E. coli strain TG-1; format: in vivo, mouse; conditions: 2 ng i.p., 6 mice at 0 h
Description: Groups of Balb/c mice (20-22 g) were administered i.p. with RN-peptide, or GMDP, or saline (control), and then infected i.p. with E. coli strain TG-1 cells. Two doses of E. coli cells were used—1×10^8 (LD50) and 2×10^8 (LD100). Mice were infected one day (experiment A) or seven days (experiment B) after injection of the immunomodulator. Survival of mice was assessed during three days. Results showing that RN-peptide protects mice from lethal doses of E. coli infections (Table 4).

[2] = Immunogenicity of the peptide: anti-peptide antibody titer by solid-phase ELISA; format: in vivo, Balb/c mice; conditions: mice immunized once or twice in PBS, 1-100 μg i.p.
Description: Immunogenicity of the peptide. Groups of Balb/c mice (5 mice) were immunized with 1-100 μg RN-peptide in PBS i.p. twice with 10-day interval. The anti-peptide antibody titer was estimated in pooled sera by solid-phase ELISA using MaxiSorb plates (Nunc, Denmark) coated with RN-peptide (10 μg/ml). The anti-peptide antibody titer was compared with the titer of normal mouse serum. E6/1.2 mAb was used as a positive control.

[3] = Experiment A (infected one day after injection), 1 × 10^8 E. coli cells (LD50)
[4] = Experiment A (infected one day after injection), 2 × 10^8 E. coli cells (LD100)
[5] = Experiment B (infected seven days after injection), 1 × 10^8 E. coli cells (LD50)
[6] = Experiment B (infected seven days after injection), 2 × 10^8 E. coli cells (LD100)

CC[C@H](C)[C@H](NC(=O)[C@H](CCCCN)NC(=O)[C@H](C)NC(=O)[C@H](Cc1c[nH]cn1)NC(=O)[C@H](Cc1ccc(O)cc1)NC(=O)[C@H](CCCNC(=N)N)NC(=O)[C@@H]1CCCN1C(=O)[C@@H]1CCCN1C(=O)[C@@H](NC(=O)[C@@H](N)CCCNC(=N)N)C(C)C)C(=O)N[C@@H](CO)C(=O)N1CCC[C@H]1C(=O)N[C@@H](CCSC)C(=O)N[C@H](C(=O)N[C@@H](CC(N)=O)C(=O)O)C(C)C [RN-peptide, RVPPRYHAKISPMVN] (H-RVPPRYHAKISPMVN-OH)
increase in body temperature [1]: did not produce this effect | Number of survivors (E. coli strain TG-1; [3]): 5 | surviving mice, 24 hours after infection (E. coli strain TG-1; [3]): 6 | surviving mice, 28 hours after infection (E. coli strain TG-1; [3]): 5 | surviving mice, 72 hours after infection (E. coli strain TG-1; [3]): 5 | Number of survivors (E. coli strain TG-1; [4]): 2 | surviving mice, 24 hours after infection (E. coli strain TG-1; [4]): 5 | surviving mice, 28 hours after infection (E. coli strain TG-1; [4]): 5 | surviving mice, 72 hours after infection (E. coli strain TG-1; [4]): 2 | Number of survivors (E. coli strain TG-1; [5]): 4 | surviving mice, 24 hours after infection (E. coli strain TG-1; [5]): 6 | surviving mice, 28 hours after infection (E. coli strain TG-1; [5]): 5 | surviving mice, 72 hours after infection (E. coli strain TG-1; [5]): 4 | Number of survivors (E. coli strain TG-1; [6]): 1 | surviving mice, 24 hours after infection (E. coli strain TG-1; [6]): 3 | surviving mice, 28 hours after infection (E. coli strain TG-1; [6]): 3 | surviving mice, 72 hours after infection (E. coli strain TG-1; [6]): 1 | anti-RN-peptide antibodies (humoral response to the peptide) [2]: did not reveal any anti-RN-peptide antibodies; also recorded: did not exceed the titer of native mice
